System: 935938-334-R-J1-PDC complex spheroid viability
Assay: Anticancer human tumor 935938-334-R-J1-PDC patient-derived small intestine adenocarcinoma cell line growth inhibition [POLQ]
Details: for IC50: curve of first compound; for viability, T/C: stronger effect = lower value
In short: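 Growth inhibition in 3D: complex spheroids (tumor PDC, HUVEC, MSC) treated with POLQ inhibitor combinations; where Cmax unknown, highest tested concentration 10 microM, except SN-38 at 1 microM.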

[1] = second compound 0.0316 µM, first compound 0.0316 µM
[2] = second compound 0.0316 µM, first compound 0.1 µM
[3] = second compound 0.0316 µM, first compound 0.316 µM
[4] = second compound 0.0316 µM, first compound 1 µM
[5] = second compound 0.0316 µM, first compound 3.16 µM
[6] = second compound 0.0316 µM, first compound 10 µM
[7] = second compound 0.1 µM, first compound 0.0316 µM
[8] = second compound 0.1 µM, first compound 0.1 µM
[9] = second compound 0.1 µM, first compound 0.316 µM
[10] = second compound 0.1 µM, first compound 1 µM
[11] = second compound 0.1 µM, first compound 3.16 µM
[12] = second compound 0.1 µM, first compound 10 µM
[13] = second compound 0.316 µM, first compound 0.0316 µM
[14] = second compound 0.316 µM, first compound 0.1 µM
[15] = second compound 0.316 µM, first compound 0.316 µM
[16] = second compound 0.316 µM, first compound 1 µM
[17] = second compound 0.316 µM, first compound 3.16 µM
[18] = second compound 0.316 µM, first compound 10 µM
[19] = second compound 1 µM, first compound 0.0316 µM
[20] = second compound 1 µM, first compound 0.1 µM
[21] = second compound 1 µM, first compound 0.316 µM
[22] = second compound 1 µM, first compound 1 µM
[23] = second compound 1 µM, first compound 3.16 µM
[24] = second compound 1 µM, first compound 10 µM
[25] = second compound 3.16 µM, first compound 0.0316 µM
[26] = second compound 3.16 µM, first compound 0.1 µM
[27] = second compound 3.16 µM, first compound 0.316 µM
[28] = second compound 3.16 µM, first compound 1 µM
[29] = second compound 3.16 µM, first compound 3.16 µM
[30] = second compound 3.16 µM, first compound 10 µM
[31] = second compound 10 µM, first compound 0.0316 µM
[32] = second compound 10 µM, first compound 0.1 µM
[33] = second compound 10 µM, first compound 0.316 µM
[34] = second compound 10 µM, first compound 1 µM
[35] = second compound 10 µM, first compound 3.16 µM
[36] = second compound 10 µM, first compound 10 µM
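Further: spheroids exposed to drugs for seven days before viability read.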
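Wherever viability, T/C is given: 100% = DMSO vehicle control wells.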

Structure (SMILES): C#Cc1c(F)ccc2cc(O)cc(-c3ncc4c(N5CC6CCC(C5)N6)nc(OCC56CCCN5CC(F)C6)nc4c3F)c12 (stereo unspecified) + COC1C(OC(N)=O)C(O)C(Oc2ccc3c(O)c(NC(=O)c4ccc(O)c(CC=C(C)C)c4)c(=O)oc3c2C)OC1(C)C
- IC50 (second compound 0.0316 µM): 848 nM
- IC50 (second compound 0.1 µM): 5680 nM
- IC50 (second compound 0.316 µM): 1840 nM
- IC50 (second compound 1 µM): 2620 nM
- IC50 (second compound 3.16 µM): 6230 nM
- IC50 (second compound 10 µM): 2920 nM
- viability, T/C [1]: 84.6%
- viability, T/C [2]: 100%
- viability, T/C [3]: 70.6%
- viability, T/C [4]: 47.5%
- viability, T/C [5]: 47.1%
- viability, T/C [6]: 29.9%
- viability, T/C [7]: 76.3%
- viability, T/C [8]: 93.5%
- viability, T/C [9]: 111%
- viability, T/C [10]: 73.1%
- viability, T/C [11]: 61.5%
- viability, T/C [12]: 41%
- viability, T/C [13]: 106%
- viability, T/C [14]: 79.6%
- viability, T/C [15]: 121%
- viability, T/C [16]: 52%
- viability, T/C [17]: 62.6%
- viability, T/C [18]: 33.8%
- viability, T/C [19]: 92.8%
- viability, T/C [20]: 81.2%
- viability, T/C [21]: 75.8%
- viability, T/C [22]: 65%
- viability, T/C [23]: 42%
- viability, T/C [24]: 44.1%
- viability, T/C [25]: 96.7%
- viability, T/C [26]: 72%
- viability, T/C [27]: 75.9%
- viability, T/C [28]: 86.4%
- viability, T/C [29]: 43.1%
- viability, T/C [30]: 48.6%
- viability, T/C [31]: 65.6%
- viability, T/C [32]: 97.9%
- viability, T/C [33]: 77.4%
- viability, T/C [34]: 57.2%
- viability, T/C [35]: 54.8%
- viability, T/C [36]: 43.9%

Structure (SMILES): CC1COCCN1c1cc(C2(O)CC3CCC(C2)O3)c2cnn(-c3ccn[nH]3)c2n1 (stereo unspecified) + COC1C(OC(N)=O)C(O)C(Oc2ccc3c(O)c(NC(=O)c4ccc(O)c(CC=C(C)C)c4)c(=O)oc3c2C)OC1(C)C
- IC50 (second compound 0.0316 µM): 244 nM
- IC50 (second compound 0.1 µM): 207 nM
- IC50 (second compound 0.316 µM): 168 nM
- IC50 (second compound 1 µM): 216 nM
- IC50 (second compound 3.16 µM): 177 nM
- IC50 (second compound 10 µM): 97 nM
- viability, T/C [1]: 82.5%
- viability, T/C [2]: 71.2%
- viability, T/C [3]: 43.8%
- viability, T/C [4]: 20.1%
- viability, T/C [5]: 14.7%
- viability, T/C [6]: 8.68%
- viability, T/C [7]: 114%
- viability, T/C [8]: 71.9%
- viability, T/C [9]: 36.4%
- viability, T/C [10]: 21.1%
- viability, T/C [11]: 18.7%
- viability, T/C [12]: 9.26%
- viability, T/C [13]: 75.7%
- viability, T/C [14]: 65.8%
- viability, T/C [15]: 30.4%
- viability, T/C [16]: 21.5%
- viability, T/C [17]: 16.8%
- viability, T/C [18]: 11.5%
- viability, T/C [19]: 79.1%
- viability, T/C [20]: 78.6%
- viability, T/C [21]: 35.8%
- viability, T/C [22]: 23.2%
- viability, T/C [23]: 13.5%
- viability, T/C [24]: 11.3%
- viability, T/C [25]: 102%
- viability, T/C [26]: 63.3%
- viability, T/C [27]: 36.5%
- viability, T/C [28]: 20.9%
- viability, T/C [29]: 15.1%
- viability, T/C [30]: 10.2%
- viability, T/C [31]: 88.2%
- viability, T/C [32]: 48.9%
- viability, T/C [33]: 27.9%
- viability, T/C [34]: 16.6%
- viability, T/C [35]: 15.7%
- viability, T/C [36]: 8.92%

Structure (SMILES): CCc1cc2c(N3CCc4c(cc(Cn5ccnc5)cc4-c4cn(C)nc4C(F)(F)F)C3=O)cc(C)nc2c(OC)n1 + COC1C(OC(N)=O)C(O)C(Oc2ccc3c(O)c(NC(=O)c4ccc(O)c(CC=C(C)C)c4)c(=O)oc3c2C)OC1(C)C
- IC50 (second compound 0.0316 µM): > 10000 nM
- IC50 (second compound 0.1 µM): > 10000 nM
- IC50 (second compound 0.316 µM): > 10000 nM
- IC50 (second compound 1 µM): > 10000 nM
- IC50 (second compound 3.16 µM): > 10000 nM
- IC50 (second compound 10 µM): > 10000 nM
- viability, T/C [1]: 83.6%
- viability, T/C [2]: 81.1%
- viability, T/C [3]: 77.7%
- viability, T/C [4]: 72.9%
- viability, T/C [5]: 64.6%
- viability, T/C [6]: 64.8%
- viability, T/C [7]: 80.8%
- viability, T/C [8]: 83.1%
- viability, T/C [9]: 74.1%
- viability, T/C [10]: 62.8%
- viability, T/C [11]: 70.4%
- viability, T/C [12]: 64%
- viability, T/C [13]: 74.6%
- viability, T/C [14]: 72.5%
- viability, T/C [15]: 75.5%
- viability, T/C [16]: 70.5%
- viability, T/C [17]: 75.4%
- viability, T/C [18]: 60%
- viability, T/C [19]: 64.7%
- viability, T/C [20]: 72%
- viability, T/C [21]: 90.6%
- viability, T/C [22]: 88.9%
- viability, T/C [23]: 73.9%
- viability, T/C [24]: 71.3%
- viability, T/C [25]: 64.4%
- viability, T/C [26]: 73.6%
- viability, T/C [27]: 73%
- viability, T/C [28]: 61.5%
- viability, T/C [29]: 74.7%
- viability, T/C [30]: 56.4%
- viability, T/C [31]: 85.7%
- viability, T/C [32]: 68.8%
- viability, T/C [33]: 71.8%
- viability, T/C [34]: 71.5%
- viability, T/C [35]: 78.5%
- viability, T/C [36]: 66.7%

— PubChem BioAssay AID1963829 (Molecular Pharmacology Branch, DTP, NCI, 2024)
